Measured values as given in patent publication US5550139A, “Serine protease inhibitors” (The Wichita State University, priority 1994, dated 1996).
Where “and” joins values, the source holds several entries; their conditions need not be identical. Equal entries are not always repeated. One block for each compound: values may come before it.

Assays:
Proteinase-3 = target: T1, Proteinase-3 (Homo sapiens, UniProt P24158); test: Proteinase-3 inhibition; assay type: biochemical; design: % Proteinase-3 Inhibition: concentration or dose not given beside the values; conditions: Table 7
T1 sequence (P24158 28-248 limits assumed): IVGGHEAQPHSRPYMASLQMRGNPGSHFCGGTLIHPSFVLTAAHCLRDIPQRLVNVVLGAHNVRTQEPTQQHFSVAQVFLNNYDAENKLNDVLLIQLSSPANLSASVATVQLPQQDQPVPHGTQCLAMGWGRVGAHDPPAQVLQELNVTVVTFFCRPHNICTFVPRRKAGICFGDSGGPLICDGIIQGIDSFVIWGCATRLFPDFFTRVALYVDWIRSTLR
From the text: (§1) An in vitro assay can be used to screen compounds of the invention for the ability to reduce or inhibit serine proteinase activity. The human leukocyte elastase (HLE), cathepsin G (Cath G), and proteinase-3 assays have each been described (Groutas et al., J. Med. Chem. 32:1607-1611, 1989; Groutas et al., Arch. Biochem. Biophys. 294:144-146, 1992; Kao et al., J. Clin. Invest. 82:1963-1973, 1988, each incorporated by reference herein). The pseudo first-order inactivation rate constants (kobs) were obtained from plots of ln(vt /vo) vs t, and expressed in terms of the apparent second-order inactivation rate constant, kobs /[I] M^-1 s^-1 (Tables 1-7). Tables 1-7 disclose the activity of preferred compounds of the invention as inhibitors of HLE and Cath G. Table 7 discloses the activity of Compounds 4A (C) and 3E (D) as inhibitors of Proteinase-3 activity. Compounds (A) and (B) have been disclosed previously (Groutas et al., Bioorganic and Med. Chem. 1(4):273-277, 1993; Groutas et al., J. Med. Chem. 36:3178, 1993).

[1] = target: T2, human leukocyte elastase (HLE) (Homo sapiens, UniProt P08246); test: Inactivation of human leukocyte elastase (kobs/[I]); assay type: biochemical; conditions: for HLE % inhibition: Table 1B footnote, [I]/[E] ratio of 200, 10 minute incubation period
T2 construct: purchased Elastin Products Co., Owensville, Mo
T2 sequence (P08246 30-247 limits assumed): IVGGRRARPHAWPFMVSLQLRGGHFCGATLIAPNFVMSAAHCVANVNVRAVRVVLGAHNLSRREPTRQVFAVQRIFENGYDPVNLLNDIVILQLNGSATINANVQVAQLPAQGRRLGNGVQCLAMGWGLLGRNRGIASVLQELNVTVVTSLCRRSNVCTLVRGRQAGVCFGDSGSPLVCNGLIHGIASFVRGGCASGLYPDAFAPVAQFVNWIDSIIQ
From the text: as §1
XII. Materials: Human leukocyte elastase was purchased from Elastin Products Co., Owensville, Mo.
(§2) Human leukocyte cathepsin G was obtained from Athens Research and Technology, Athens, Ga. Methoxysuccinyl Ala-Ala-Pro-Val p-nitroanilide and methoxysuccinyl Ala-Ala-Pro-Phe p-nitroanilide were purchased from Sigma Chemicals Co., St. Louis, Mo. Baker-analyzed 60-200 mesh silica gel was used for flash chromatography.

[2] = system: neutrophil diapedesis (peritonitis); test: Inhibition of neutrophil diapedesis after experimentally induced (starch) peritonitis; assay type: in vivo, rat; conditions: 8 mg/kg i.v. single dose; for Total Number of Cells Lavaged at 4 Hours, Lymphocytes / Total Number of Cells Lavaged at 4 Hours, Macrophages Monocytes / Total Number of Cells Lavaged at 4 Hours, Neutrophils / Total Number of Cells Lavaged at 4 Hours, Total Cells / Abdominal Lavage Cell Distribution, Lymphocytes / Abdominal Lavage Cell Distribution, Macrophages Monocytes / Abdominal Lavage Cell Distribution, Neutrophils: starch; for Abdominal Lavage Cell Distribution, Lymphocytes / Abdominal Lavage Cell Distribution, Macrophages Monocytes / Abdominal Lavage Cell Distribution, Neutrophils: 4 hours
Experimental: (§3) Each compound (A-D) was individually injected into the tail vein of a rat in a single dose (8 mg/kg). After injection, peritonitis was induced in the rat by an IP (intraperitoneal) injection of 1 ml of a 0.1% soluble starch solution. After 4 hours, the peritoneal cavity was lavaged with saline in order to determine the number and type of cells responding to peritonitis. Cell numbers were determined by a Coulter counter and cell type (e.g. lymphocytes, neutrophils, macrophages and monocytes) by standard Cytospin and Giemsa staining. Cell number and type was evaluated after IP injection of saline (negative control, no inflammation), starch (positive control, inflammation) or starch with IV injection of an inhibitor (experimental, inflammation). Inhibitors were dissolved in DMSO prior to administration.

rat = test: Overt toxicity in injected rats; assay type: in vivo
Experimental: (§4) Inhibitor A or B were each injected twice daily into the tail vein of a rat (8 mg/kg) over a period of three days. Inflammation was not induced in these rats. […] WBC=white blood cells; PMN=polymorphonuclear leukocytes; The elastase assay has been disclosed above.
as §3

cathepsin G (Cath G) = target: T3, cathepsin G (Cath G) (Homo sapiens, UniProt P08311); test: Inactivation of human leukocyte cathepsin G (kobs/[I]); assay type: biochemical; conditions: for kinact/KI: pH 7.5
T3 construct: purchased Athens Research and Technology, Athens, Ga
T3 sequence (P08311 21-244 limits assumed): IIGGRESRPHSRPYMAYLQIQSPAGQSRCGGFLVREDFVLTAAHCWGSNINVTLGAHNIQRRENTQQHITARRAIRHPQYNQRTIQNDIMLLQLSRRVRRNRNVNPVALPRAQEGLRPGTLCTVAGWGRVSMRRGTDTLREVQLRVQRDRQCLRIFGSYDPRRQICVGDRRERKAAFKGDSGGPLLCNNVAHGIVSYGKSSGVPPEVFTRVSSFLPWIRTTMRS
Experimental: Human leukocyte cathepsin G (1.33 uM) is incubated with compound 8 (133 uM) (a) or compound 10 (13.3 uM) (b) in 0.1M HEPES buffer, pH 7.5, and 10% DMSO. Aliquots were withdrawn at different time intervals and assayed for enzymatic activity using methoxysuccinyl Ala-Ala-Pro-Phe p-nitroanilide.
Human leukocyte cathepsin G (1.48 μM was incubated with inhibitor 5A (1.48 μM in 0.1M HEPES buffer, pH 7.5, and 1% DMSO. Aliquots were withdrawn at different time intervals and assayed for enzymatic activity using methoxysuccinyl Ala-Ala-Pro-Phe p-nitroanilide.
as §1, §2

neutrophil elastase = test: Elastase activity and cell number in peripheral blood neutrophils after administration to rats; assay type: in vivo; conditions: rat, 8 mg/kg twice daily i.v. for three days
Experimental: as §4

[3] = system: peripheral blood neutrophils and lymphocytes; test: Peripheral blood cell distribution after administration to rats without inflammation; assay type: in vivo; conditions: rat, 8 mg/kg twice daily for three days
Experimental: Compound A or Compound B were each administered twice daily for three days at a dose of 8 mg/kg. Inflammation was not induced in these rats. […] However, substitution of the aspirin moiety with a fluorine atom, as found in Compound B, prevents an increase in neutrophil cell number.

[4] = peripheral blood neutrophils, per animal, 8 mg/kg
[5] = no inflammation, per animal, 8 mg/kg

% Proteinase-3 Inhibition (Proteinase-3): 66%
SMILES: O=C(CSc1ccccc1)OCN1C(=O)c2ccccc2S1(=O)=O

SMILES: CC(C)C[C@H]1C(=O)N(CS(=O)(=O)c2ccccc2)S(=O)(=O)N1C [Compound 3E]
inhibition of elastase (in words) [1]: an elastase inhibitor | kinact/KI ([1]; Table 6): 7580 M⁻¹ s⁻¹ | Total Number of Cells Lavaged at 4 Hours, Lymphocytes ([2]; Experiment 2): 6.4 × 10^6 | Total Number of Cells Lavaged at 4 Hours, Macrophages Monocytes ([2]; Experiment 2): 7.7 × 10^6 | Total Number of Cells Lavaged at 4 Hours, Neutrophils ([2]; Experiment 2): 17.9 × 10^6 | Total Number of Cells Lavaged at 4 Hours, Total Cells ([2]; Experiment 2): 32 × 10^6 | Abdominal Lavage Cell Distribution, Lymphocytes ([2]; Experiment 2): 20% | Abdominal Lavage Cell Distribution, Macrophages Monocytes ([2]; Experiment 2): 24% | Abdominal Lavage Cell Distribution, Neutrophils ([2]; Experiment 2): 56% | effect on neutrophil diapedesis (in words) ([2]; rat): substantially reduced neutrophil diapedesis | toxicity (in words) (rat; rat peritonitis test, 8 mg/kg i.v. single dose): non-toxic

SMILES: CC(C)(C)OC(=O)CN1[C@@H](Cc2ccccc2)C(=O)N(CF)S1(=O)=O [Compound 4A, (S)-4-Benzyl-5(tert-butoxycarbonylmethyl)-2-fluoromethyl-3-oxo-1,2,5-thiadiazolidine 1.1-dioxide]
kinact/KI ([1]; Table 2): 490 M⁻¹ s⁻¹ | inhibition of Cath G (in words) (cathepsin G (Cath G)): an inhibitor of Cath G | Total Number of Cells Lavaged at 4 Hours, Lymphocytes ([2]; Experiment 2): 6.5 × 10^6 | Total Number of Cells Lavaged at 4 Hours, Macrophages Monocytes ([2]; Experiment 2): 6.5 × 10^6 | Total Number of Cells Lavaged at 4 Hours, Neutrophils ([2]; Experiment 2): 41.0 × 10^6 | Total Number of Cells Lavaged at 4 Hours, Total Cells ([2]; Experiment 2): 54 × 10^6 | Abdominal Lavage Cell Distribution, Lymphocytes ([2]; Experiment 2): 12% | Abdominal Lavage Cell Distribution, Macrophages Monocytes ([2]; Experiment 2): 12% | Abdominal Lavage Cell Distribution, Neutrophils ([2]; Experiment 2): 76% | effect on neutrophil diapedesis (in words) ([2]; rat): did not inhibit neutrophil diapedesis associated with peritonitis

HLE % inhibition [1]: 20% | kinact/KI (cathepsin G (Cath G); Table 1B): 340 M⁻¹ s⁻¹
SMILES: C=C(N1C(=O)C(Cc2ccccc2)CS1(=O)=O)S(=O)(=O)c1ccccc1 (stereo not drawn) [Compound 9, 4-Benzyl-2-(1-phenylsulfonylvinyl)isothiazolidin-3-one 1,1-dioxide]

kinact/KI ([1]; Table 3): 300 M⁻¹ s⁻¹ | kinact/KI (cathepsin G (Cath G); Table 3): 1820 M⁻¹ s⁻¹
SMILES: C[C@@H](NC(=O)OCc1ccccc1)C(=O)OCN1C(=O)C(Cc2ccccc2)CS1(=O)=O (stereo partly drawn) [Compound 9B]

HLE % inhibition [1]: 12% | kinact/KI (cathepsin G (Cath G); Table 1B): 960 M⁻¹ s⁻¹
SMILES: O=C1C(Cc2ccccc2)CS(=O)(=O)N1CS(=O)(=O)c1ccccc1 (stereo not drawn) [Compound 10, 4-Benzyl-2-(1-phenylsulfonylmethyl)isothiazolidin-3-one 1,1-dioxide]
time-dependent loss of serine protease activity (cathepsin G (Cath G); FIG. 5, Cath G 1.33 uM, inhibitor 13.3 uM, 0.1M HEPES pH 7.5, 10% DMSO): time-dependent loss of serine protease activity

kinact/KI ([1]; Table 3): 310 M⁻¹ s⁻¹ | kinact/KI (cathepsin G (Cath G); Table 3): 560 M⁻¹ s⁻¹
SMILES: C[C@@H](NC(=O)OC(C)(C)C)C(=O)OCN1C(=O)C(Cc2ccccc2)CS1(=O)=O (stereo partly drawn) [Compound 10B]

kinact/KI ([1]; Table 3): 220 M⁻¹ s⁻¹ | kinact/KI (cathepsin G (Cath G); Table 3): 2680 M⁻¹ s⁻¹
SMILES: O=C(CNC(=O)OCc1ccccc1)OCN1C(=O)C(Cc2ccccc2)CS1(=O)=O (stereo not drawn) [Compound 11B]

SMILES: CC(=O)Oc1ccccc1C(=O)OCN1C(=O)c2ccccc2S1(=O)=O [Drug A]
Elastase Activity (neutrophil elastase; [4]): 0.55 ΔOD/min/ml and 0.70 ΔOD/min/ml | Elastase Activity Rate/10^6 PMN (neutrophil elastase; [4]): 0.014 and 0.015 | entry into neutrophils in vivo (in words) (neutrophil elastase): do not enter neutrophils in vivo | inactivation of neutrophil intracellular proteinase (in words) (neutrophil elastase): fails to inactivate neutrophil intracellular proteinase | PMN (neutrophil elastase; per animal, 8 mg/kg): 41.4 × 10^6 and 45.7 × 10^6 | Total WBC (neutrophil elastase; per animal, 8 mg/kg): 46.0 × 10^6 and 55.0 × 10^6 | effect on elastase activity in circulating neutrophils (in words) (neutrophil elastase; vs vehicle): did not reduce elastase activity in circulating neutrophils | morphology of circulating cells (in words) [3]: most of the circulating cells are morphologically mature | Peripheral Blood Cell Distribution, Lymphocytes [3, 5]: 10% and 17% | Peripheral Blood Cell Distribution, Neutrophils [3, 5]: 90% and 83% | effect on number of neutrophils in peripheral circulation (in words) ([3]; no inflammation, vs vehicle): caused an increase in the number of neutrophils into the peripheral circulation | Total Number of Cells Lavaged at 4 Hours, Lymphocytes ([2]; Experiment 1): 7.0 × 10^6 | Total Number of Cells Lavaged at 4 Hours, Macrophages Monocytes ([2]; Experiment 1): 7.6 × 10^6 | Total Number of Cells Lavaged at 4 Hours, Neutrophils ([2]; Experiment 1): 11.0 × 10^6 | Total Number of Cells Lavaged at 4 Hours, Total Cells ([2]; Experiment 1): 25 × 10^6 | Abdominal Lavage Cell Distribution, Lymphocytes ([2]; Experiment 1): 28% | Abdominal Lavage Cell Distribution, Macrophages Monocytes ([2]; Experiment 1): 38% | Abdominal Lavage Cell Distribution, Neutrophils ([2]; Experiment 1): 44% | reduction of peritonitis induced neutrophil diapedesis ([2]; rat): more than 50% | overt signs of toxicity (rat; rat, 8 mg/kg twice daily i.v. for three days): no overt signs of toxicity

% Proteinase-3 Inhibition (Proteinase-3): 86%
SMILES: CC(C)CC1C(=O)N(CS(=O)(=O)c2ccccc2)S(=O)(=O)N1Cc1ccccc1 (stereo not drawn) [drawing 92 R = benzyl]

% Proteinase-3 Inhibition (Proteinase-3): 84%
SMILES: CC(C)CC1C(=O)N(CS(=O)(=O)c2ccccc2)S(=O)(=O)N1C (stereo not drawn) [drawing 92 R = methyl]

% Proteinase-3 Inhibition (Proteinase-3): 33%
SMILES: CC(C)(C)OC(=O)CN1[C@@H](Cc2ccccc2)C(=O)N(CF)S1(=O)=O [drawing 93 R = CH2 COOt-BOC]

% Proteinase-3 Inhibition (Proteinase-3): 43%
SMILES: O=C1C(Cc2ccccc2)N(Cc2ccccc2)S(=O)(=O)N1CF (stereo not drawn) [drawing 93 R = benzyl]

% Proteinase-3 Inhibition (Proteinase-3): 55%
SMILES: CN1C(Cc2ccccc2)C(=O)N(CF)S1(=O)=O (stereo not drawn) [drawing 93 R = methyl]

SMILES: O=C1c2ccccc2S(=O)(=O)N1CF [drawing 94]
% Proteinase-3 Inhibition (Proteinase-3): 79%

Proteinase-3 Inhibition (in words) (Proteinase-3): inactive
SMILES: O=C1C(Cc2ccccc2)CS(=O)(=O)N1CF (stereo not drawn) [drawing 96]
